Columns and labels:
ECHCO = assay: Postemergence foliar-applied, direct seeded rice weeds (Example I); assay type: in vivo, Echinochloa colona (L.) Link
Excerpt: Seeds or nutlets of the desired test plant species were planted in a soil matrix prepared by mixing a loam or sandy loam soil (e.g., 28.6 percent silt, 18.8 percent clay, and 52.6 percent sand, with a pH of about 5.8 and an organic matter content of about 1.8 percent) and calcareous grit in an 80 to 20 ratio. The soil matrix was contained in plastic pots with a volume of 1 quart and a surface area of 83.6 cm^2. When required to ensure good germination and healthy plants, a fungicide treatment and/or other chemical or physical treatment was applied. The plants were grown for 8-22 days in a greenhouse with an approximate 14 h photoperiod which was maintained at about 29° C. during the day and 26° C. during the night. Nutrients (Peters Excel® 15-5-15 5-Ca 2-Mg and iron chelate) were applied in the irrigation solution as needed and water was added on a regular basis. Supplemental lighting was provided with overhead metal halide 1000-Watt lamps as necessary. The plants were employed for testing when they reached the first through fourth true leaf stage.
Treatments consisted of the acid or esters of 4-amino-3-chloro-5-fluoro-6-(4-chloro-2-fluoro-3-methoxy-phenyl)pyridine-2-carboxylic acid (Compound A), each formulated as an SC (suspension concentrate), and various herbicidal components alone and in combination. Forms of compound A were applied on an acid equivalent basis.
Other herbicidal components were applied on an acid equivalent basis and include acetolactate synthase (ALS)-inhibiting herbicides (imidazolinone chemical class) imazethapyr ammonium salt formulated as Newpath®, imazamox ammonium salt formulated as Beyond®, imazapic ammonium salt formulated as Plateau®, imazapyr isopropylamine salt formulated as Arsenal®, imazamethabenz-methyl (technical material) and imazaquin isopropylamine salt formulated as Scepter®/Imagine®.
Treatment requirements were calculated based upon the rates being tested, the concentration of active ingredient or acid equivalent in the formulation, and a 12 mL application volume at a rate of 187 L/ha.
For treatments comprised of formulated compounds, measured amounts of compounds were placed individually in 25 mL glass vials and diluted in a volume of 1.25% (v/v) Agri-Dex® crop oil concentrated to obtain 12× stock solutions. […]
For treatments comprised of formulated and technical compounds, weighed amounts of the technical materials were placed individually in 25 mL glass vials and dissolved in a volume of 97:3 v/v acetone/DMSO to obtain 12× stock solutions, and measured amounts of the formulated compounds were placed individually in 25 mL glass vials and diluted in a volume of 1.5% (v/v) crop oil concentrate or water to obtain 12× stock solutions. […]

CIRAR = assay: Postemergence herbicidal activity in cereal crops, greenhouse (Example V); assay type: in vivo, Cirsium arvense (L.) Scop.
Method: (§1) Seeds of the desired test plant species were planted in Sun Gro MetroMix® 306 planting mixture, which typically has a pH of 6.0 to 6.8 and an organic matter content of about 30 percent, in plastic pots with a surface area of 103.2 square centimeters (cm^2). When required to ensure good germination and healthy plants, a fungicide treatment and/or other chemical or physical treatment was applied. The plants were grown for 7-36 days in a greenhouse with an approximate 14 hour photoperiod which was maintained at about 18° C. during the day and about 17° C. during the night. Nutrients and water were added on a regular basis and supplemental lighting was provided with overhead metal halide 1000-Watt lamps as necessary. The plants were employed for testing when they reached the second or third true leaf stage.
(§2) Treatments consisted of the benzyl ester of 4-amino-3-chloro-5-fluoro-6-(4-chloro-2-fluoro-3-methoxy-phenyl)pyridine-2-carboxylic acid (Compound A), formulated as an SC, a second cereal herbicide alone and then both in combination.
(§3) Other herbicidal components were applied on an acid equivalent basis and include acetolactate synthase (ALS)-inhibiting herbicides (imidazolinone chemical class) imazamethabenz-methyl formulated as Assert®. Spray solutions of the second cereal herbicide and experimental compound mixtures were prepared by adding the stock solutions to the appropriate amount of dilution solution to form 12 mL spray solution with active ingredients in two- and three-way combinations. […]
(§4) The treated plants and control plants were placed in a greenhouse as described above and watered by sub-irrigation to prevent wash-off of the test compounds. After 20-22 days, the condition of the test plants as compared with that of the control plants was determined visually and scored on a scale of 0 to 100 percent where 0 corresponds to no injury and 100 corresponds to complete kill. […]

SINAR = assay: as above; assay type: in vivo, Sinapis arvensis L.
Method: as §1, §2, §3, §4

[1] = Compound A Benzyl Ester 2 gae/ha
[2] = Compound A Benzyl Ester 4 gae/ha

## COc1c(Cl)ccc(-c2nc(C(=O)O)c(Cl)c(N)c2F)c1F [Compound A Acid, 4-amino-3-chloro-6-(4-chloro-2-fluoro-3-methoxyphenyl)-5-fluoropyridine-2-carboxylic acid]
ECHCO; Compound A Acid 4.38 gae/ha
  Visual Weed Control (%) - 25 DAA ECHCO Obs: 60%
ECHCO; Compound A Acid 8.75 gae/ha
  Visual Weed Control (%) - 25 DAA ECHCO Obs: 65%
ECHCO; Compound A Acid 17.5 gae/ha
  Visual Weed Control (%) - 25 DAA ECHCO Obs: 90%

## Cc1cnc(C2=NC(C)(C(C)C)C(=O)N2)c(C(=O)O)c1.N (racemic) [Imazapic ammonium, ammonium (±)-2-[4,5-dihydro-4-methyl-4-(1-methylethyl)-5-oxo-1H-imidazol-2-yl]-5-methyl-3-pyridinecarboxylic acid]
ECHCO; Imazapic ammonium 17.5 gae/ha
  Visual Weed Control (%) - 25 DAA ECHCO Obs: 70%

## COc1c(Cl)ccc(-c2nc(C(=O)OCc3ccccc3)c(Cl)c(N)c2F)c1F [Compound A Benzyl Ester, benzyl ester of 4-amino-3-chloro-5-fluoro-6-(4-chloro-2-fluoro-3-methoxy-phenyl)pyridine-2-carboxylic acid]
CIRAR; [1]
  Visual Weed Control (%) - 21 DAA CIRAR Obs: 10%
CIRAR; [2]
  Visual Weed Control (%) - 21 DAA CIRAR Obs: 20%
SINAR; [1]
  Visual Weed Control (%) - 21 DAA SINAR Obs: 60%
SINAR; [2]
  Visual Weed Control (%) - 21 DAA SINAR Obs: 70%

Source: patent US8906826B2, “Herbicidal compositions comprising 4-amino-3-chloro-5-fluoro-6-(4-chloro-2-fluoro-3-methoxyphenyl) pyridine-2-carboxylic acid or a derivative thereof and imidazolinones” (Dow AgroSciences, LLC, priority 2012, dated 2014)
